Reference: PubChem BioAssay AID488788 (Broad Institute, 2010)
Results filed as inconclusive are left out. Active and inactive are the calls of the source. No rule for the calls is given here.

Target: CAAX prenyl protease 2 (Saccharomyces cerevisiae (strain ATCC 204508 / S288c)) (UniProt Q03530)
Experiment: yeast Rce1 CAAX endoprotease inhibition – biochemical, plate reader, cherry-pick, dose response (AID 488788)
Settings: Rce1p enzyme activity

CAAX prenyl protease 2 (Saccharomyces cerevisiae (strain ATCC 204508 / S288c)), sequence (Q03530 whole entry, looked up): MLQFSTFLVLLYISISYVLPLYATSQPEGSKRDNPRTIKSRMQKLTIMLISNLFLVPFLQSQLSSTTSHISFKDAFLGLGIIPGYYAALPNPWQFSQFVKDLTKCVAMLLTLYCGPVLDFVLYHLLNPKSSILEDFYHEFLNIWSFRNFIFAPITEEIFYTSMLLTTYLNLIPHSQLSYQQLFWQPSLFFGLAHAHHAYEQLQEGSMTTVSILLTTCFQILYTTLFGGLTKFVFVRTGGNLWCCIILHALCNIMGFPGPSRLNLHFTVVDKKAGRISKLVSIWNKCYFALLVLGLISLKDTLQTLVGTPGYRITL

AC50 | Compound
> 10 µM (inactive) | COC(C/C=C\C(=O)[C@H](C)OCc1ccccc1)OC

Same assay, conditions: Rce1p enzyme activity, at 10 µM (top of the series)

Compound | activity change, negative = inhibition
Cc1cc2cc(C#N)c(NCCNC(=S)NCCCN3CCOCC3)nc2cc1C | inactive
O=C(CN1CCC(NC(=O)c2ccc(Br)cc2)CC1)NCc1cccs1 | inactive
CCC(COC)NC(=O)CCc1nnc(Cc2cccc(C(F)(F)F)c2)o1 (configuration not stated) | inactive
CC(C)C(NC(=O)c1ccco1)C(=O)NCC(c1ccco1)N1CCCCC1 (configuration not stated) | inactive
CCC1CCCCN1C(=O)NC(=O)c1ccccc1 (configuration not stated) | inactive
Cc1c(C)c2ccc(OC(C)C(=O)NCCCN3CCOCC3)c(C)c2oc1=O (configuration not stated) | inactive
CCn1cc(C(=O)NCCO)c(=O)c2cc(F)c(N3CCN(C)CC3)cc21 | inactive
CSc1ccc(/C=C/C(=O)OCC(=O)NC(C)C)cc1 | inactive
COc1cc(NC(=O)C/C(C)=N/NC(=O)c2cccc(O)c2)c(OC)cc1Cl | inactive
CC(Oc1ccc2c3c(c(=O)oc2c1)CCCC3)C(=O)NC1CC(C)(C)NC(C)(C)C1 (configuration not stated) | inactive
C=C(C)C1(O)OC(=O)C=C1OC (configuration not stated) | inactive
O=C(Nc1cc(Cl)cc(Cl)c1)c1coc(=O)c(Br)c1 | inactive
Nc1c(C(=O)NCc2ccccc2)sc2nc(N3CCOCC3)c3c(c12)CCCC3 | inactive
COc1ccc(-c2nc3ncccc3o2)cc1NC(=O)c1ccco1 | inactive
CC(=O)c1c(C)[nH]c(C(=O)OCc2ccc(Br)cc2)c1C | inactive
COCCCNC(=O)c1cc2cc3cc(OC)ccc3nc2o1 | inactive
Cc1ccc(NS(=O)(=O)c2ccc(NC(=O)N3CCCCC3)cc2)cc1 | inactive
COc1ccc2[nH]c(C(=O)NCCCn3ccnc3)cc2c1 | inactive
COc1cccc(-c2csc(N3CCN(C(=O)NC45CC6CC(CC(C6)C4)C5)CC3)n2)c1 | inactive

Compound | activity change, negative = inhibition
CCCCn1c(=O)[nH]c(=O)c2c1nc(-c1ccc(OC)c(Br)c1)n2CC(C)C | inactive
CCOc1c2ccc(C(=O)NCc3ccco3)cc2nn1CCOC | inactive
CN(C)c1ccc(/C=N/NC(=O)C(O)c2ccc(Br)cc2)cc1 (configuration not stated) | inactive
CC(=O)N1c2ccc([N+](=O)[O-])cc2NC(=O)CC1C (configuration not stated) | inactive
C/C(CC1(O)C(=O)Nc2ccccc21)=N\O (configuration not stated) | inactive
COc1ccc(CC(=O)OCC(=O)Nc2ccc(Br)cc2)cc1 | inactive
Cc1c(CCC(=O)O)c(=O)oc2cc(OCc3cccc(F)c3)ccc12 | inactive
c1cnn(Cc2cnc(N3CCOCC3)s2)c1 | inactive
COc1ccc(Cc2nc3ccc(C(=O)N4CCCC4)cc3o2)cc1 | inactive
CCOc1ccc(N(CC(=O)NC2CC3CCC2C3)S(=O)(=O)c2ccccc2)cc1 (configuration not stated) | inactive
CCOC(=O)c1cc(C)[nH]c(=O)c1C#N | inactive
CC(=O)c1c(O)cc(O)c(C(C)=O)c1O | inactive
CCNC(=S)NNC(=O)CCn1cc(C)cn1 | inactive
O=C1CCCN1CC(O)CS(=O)(=O)c1ccccc1 (configuration not stated) | inactive
C/C=C(/C)C(=O)O[C@H]1[C@@H](O)c2c(ccc3ccc(=O)oc23)OC1(C)C | inactive
COc1ccc(C(=O)/C=C/c2ccc(OC)cc2OC)c(O)c1 | inactive
CCOc1ccc(OCC)c(NC(=O)c2nnn(CC(=O)Nc3cc(C)cc(C)c3)c2N)c1 | inactive
CCCOc1ccccc1C(=O)NCCCC(=O)O | inactive
Cc1ccc(C(=O)N/C(=C/c2ccco2)C(=O)Nc2cccc(C(=O)O)c2)cc1 | inactive

Next, values leading:

activity change, negative = inhibition | Compound
inactive | CC(=O)N[C@@H](C)c1nc2ccccc2n1CCCN1CCN(c2nc(-c3ccc(C)cc3)cs2)CC1
inactive | O=C(Nc1cc(S(=O)(=O)N2CCCCC2)ccc1Cl)c1ccccc1NS(=O)(=O)c1ccc(F)cc1
inactive | COCCN1C(=O)/C(=C/c2ccc(Oc3ccc([N+](=O)[O-])cn3)c(OC)c2)SC1=Nc1ccccc1
inactive | CC(C)c1ccc(NC(=O)COc2nncc3ccccc23)cc1
inactive | Cc1cccc(N2C(=O)c3cccc4c(N5CCCCC5)c([N+](=O)[O-])cc(c34)C2=O)c1C
inactive | COc1ccc(S(=O)(=O)NCC2CCCO2)cc1NC(=O)c1ccccc1F (configuration not stated)
inactive | Cc1cc(C(=O)N[C@H](c2ccccc2)[C@@]2(C)C[C@@H]2[C@@H](C)C(=O)Nc2ccc3ccccc3c2)n(C)n1
inactive | COc1ccccc1-n1c(-c2ccccc2)c[nH]c1=S
inactive | CC(=O)NN1C(=O)c2ccccc2NC1c1ccccc1 (configuration not stated)
inactive | Cn1c(CCNS(=O)(=O)c2ccccc2)nnc1SCc1cccnc1
inactive | O=C(Nc1cccc2ncccc12)c1cccnc1
inactive | Cc1cc(NS(=O)(=O)c2ccccc2)c([N+](=O)[O-])cc1C
inactive | CCOC(=O)c1ccc(NC(=O)N2CCN(Cc3ccccc3)CC2)cc1
inactive | O=C(Nc1ccccc1)n1ccc(-c2ccc(-n3ccnc3)cc2)n1
inactive | O=C(O)c1ccc(N/N=C/c2ccc(-c3ccccc3Cl)o2)cc1
inactive | COc1ccccc1N1CCN(C(=O)c2coc(=O)c(Br)c2)CC1
inactive | CCn1c(C)nc2c(=O)oc3ccccc3c21
inactive | COC(=O)Cn1c(CCC(=O)O)ccc1-c1ccccc1
inactive | CC1=C(C(=O)OCc2ccccc2)C(c2ccc(-c3ccccc3)cc2)NC(=O)N1CCCC(=O)O (configuration not stated)
inactive | CN1C(=O)c2ccccc2N(C)C1c1ccccc1Cl (configuration not stated)
inactive | CCn1cc(C(=O)N[C@H](C)c2ccccc2)c(=O)c2cc(F)c(N3CCN(C)CC3)cc21
inactive | CC1=CC2=NC(=O)CC(C)(C(=O)N(CC(=O)NC3CCCC3)Cc3ccccc3)N2C=C1 (configuration not stated)
inactive | O=C(COC(=O)c1ccc(S(=O)(=O)N2CCCC2)cc1)NCc1ccccc1
inactive | O=C(O)c1ccc(Nc2nc3ccc(Cl)cc3[nH]2)cc1
inactive | CC(=O)Nc1ccc(Cl)cc1C1COC(=O)C1=N (configuration not stated)
inactive | COc1ccc2oc(-c3ccccc3)c(C(=O)N3CCOCC3)c2c1
inactive | CC(C)c1cccc(OCC(=O)Nc2ccc(S(=O)(=O)Nc3ccccn3)cc2)c1
inactive | O=S(=O)(c1ccccc1)c1cnn2c(C(F)(F)F)cc(-c3ccc(F)cc3)nc12
